Assays:
Test in all cases: relative viability (nuclei count vs DMSO), 5 days (fraction); higher = more cells survive
[1] = compound: C(C(=O)C(=O)O)Br [Bromopyruvate] + CC(=O)Nc1cccc(-n2c(=O)n(C3CC3)c(=O)c3c(Nc4ccc(I)cc4F)n(C)c(=O)c(C)c32)c1 [Trametinib] (partner 0.02 µM)
How it was run: (§1)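 Dosing by pin tool came one day after lung cancer cell lines were seeded in 1536-well plates, using either one drug or a fixed anchor-drug dose plus five library-drug doses (not always all listed) in √10 steps. After 5 days, nuclei were counted on 4× images. Relative viability is treated-well nuclei count divided by vehicle-well nuclei count, and values are medians of duplicate plates.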

Bromopyruvate + AZD7762 = compound: C(C(=O)C(=O)O)Br [Bromopyruvate] + NC(=O)Nc1cc(-c2cccc(F)c2)sc1C(=O)N[C@H]1CCCNC1 [AZD7762] (partner 0.2 µM)
How it was run: as §1

[2] = compound: C(C(=O)C(=O)O)Br [Bromopyruvate] + CS(=O)(=O)N1CCN(Cc2cc3nc(-c4cccc5[nH]ncc45)nc(N4CCOCC4)c3s2)CC1 [Pictilisib] (partner 1 µM)
How it was run: as §1

[3] = compound: CC(O)(CS(=O)(=O)c1ccc(F)cc1)C(=O)Nc1ccc(C#N)c(C(F)(F)F)c1 [Bicalutamide] + N=C(N)NC(=N)NCCc1ccccc1 [Phenformin] (partner 250 µM)
How it was run: as §1

| Cell Line | relative viability ([1]; first compound 1 µM) | relative viability ([1]; first compound 3.162 µM) | relative viability ([1]; first compound 10 µM) | relative viability ([1]; first compound 31.62 µM) | relative viability ([1]; first compound 100 µM) | relative viability (Bromopyruvate + AZD7762; first compound 1 µM) | relative viability (Bromopyruvate + AZD7762; first compound 3.162 µM) | relative viability (Bromopyruvate + AZD7762; first compound 10 µM) | relative viability (Bromopyruvate + AZD7762; first compound 31.62 µM) | relative viability (Bromopyruvate + AZD7762; first compound 100 µM) | relative viability ([2]; first compound 1 µM) | relative viability ([2]; first compound 3.162 µM) | relative viability ([2]; first compound 10 µM) | relative viability ([2]; first compound 31.62 µM) | relative viability ([2]; first compound 100 µM) | relative viability ([3]; first compound 0.08 µM) | relative viability ([3]; first compound 0.253 µM) | relative viability ([3]; first compound 0.8 µM) | relative viability ([3]; first compound 2.53 µM) |
| --- | --- | --- | --- | --- | --- | --- | --- | --- | --- | --- | --- | --- | --- | --- | --- | --- | --- | --- | --- |
| NCI-H2126 | 0.547 | 0.579 | 0.559 | 0.591 | 0.57 | 0.989 | 1.04 | 1.2 | 0.953 | 1.04 | 0.531 | 0.511 | 0.456 | 0.562 | 0.509 | 0.519 | 0.528 | 0.55 | 0.49 |
| LC-2-ad | 0.892 | 0.904 | 0.872 | 0.958 | 0.945 | 0.885 | 0.863 | 0.881 | 0.812 | 0.799 | 0.477 | 0.494 | 0.513 | 0.572 | 0.548 | 0.607 | 0.529 | 0.654 | 0.56 |
| NCI-H1915 | 0.308 | 0.293 | 0.296 | 0.342 | 0.349 | 0.699 | 0.681 | 0.671 | 0.661 | 0.689 | 0.95 | 0.934 | 0.9 | 0.955 | 0.897 | 0.375 | 0.313 | 0.368 | 0.362 |
| NCI-H1793 | 0.469 | 0.496 | 0.503 | 0.485 | 0.49 | 0.452 | 0.536 | 0.484 | 0.428 | 0.522 | 0.391 | 0.32 | 0.305 | 0.272 | 0.237 | 0.317 | 0.318 | 0.545 | 0.392 |
| NCI-H2085 | 0.559 | 0.685 | 0.516 | 0.563 | 0.341 | 0.947 | 1.01 | 1.04 | 0.991 | 0.95 | 0.429 | 0.426 | 0.463 | 0.437 | 0.498 | 0.742 | 0.686 | 0.781 | 0.608 |
| LXF-289 | 0.671 | 0.653 | 0.627 | 0.693 | 0.67 | 1.07 | 1.12 | 1.08 | 1.07 | 1.26 | 0.756 | 0.758 | 0.802 | 0.867 | 0.816 | 0.596 | 0.481 | 0.55 | 0.519 |
| PC-3 [JPC-3] | 0.734 |  | 0.787 |  | 0.734 | 0.903 |  | 0.933 |  | 0.638 | 0.775 | 0.724 | 0.731 | 0.694 | 0.733 | 0.46 | 0.472 | 0.505 | 0.505 |
| NCI-H1666 | 0.865 | 0.858 | 0.825 | 0.852 | 0.911 | 0.966 | 0.843 | 0.878 | 0.872 | 0.766 | 0.43 | 0.418 | 0.567 | 0.558 | 0.531 | 0.613 | 0.541 | 0.569 | 0.537 |
| NCI-H2087 | 0.224 | 0.189 | 0.156 | 0.175 | 0.185 | 1.19 | 1.4 | 1.36 | 1.2 | 1.32 | 0.834 | 0.984 | 0.96 | 0.844 | 0.886 | 0.539 | 0.449 | 0.642 | 0.435 |

Reference: the supplement of paper PMC10307832
